In patent publication US8349365B2, “Cellooligosaccharide-containing composition” (priority 2005, dated 2013):
One block for each compound: values may come before it.

What was measured:
[1] = tested on: rough skin, inner side of the forearm; assay: transepidermal water loss (TEWL) recovery test; type: in vivo, human
Excerpt: The barrier function in the present invention is expressed by the recovery-promoting rate of transepidermal water loss, and the recovery-promoting rate of transepidermal water loss of the agent for improving barrier function of the present invention is preferably 10% or higher. The recovery-promoting rate referred to herein is expressed by a decreasing rate of relative transepidermal water loss of the cellooligosaccharide-containing composition to a relative transepidermal water loss of purified water using a relative transepidermal water loss 2 hours after applications of the aqueous cellooligosaccharide solution and a relative transepidermal water loss obtained from purified water to the rough skin. This value is obtained by the following expression. Recovery-promoting rate(%)=([relative transepidermal water loss of water)−[relative transepidermal water loss of cellooligosaccharide-containing composition]/(relative transepidermal water loss of water)×100
Furthermore, a relative value of the above-mentioned transepidermal water loss (relative transepidermal water loss) can be measured by transepidermal water loss (TEWL) in the rough skin. First, the inner side of the forearm (test site) is wiped with 70% ethanol and habituated in a room with a constant temperature and a humidity (room temperature 22° C., humidity 45%) for 15 minutes, and the test site is measured with a 2-channel moisture loss monitor (manufactured by Asahi Biomed, TW-AS type to obtain the initial TEWL value (TEWEL0). Then, after measurement of the initial TEWL, the test site is washed with water, the test site is coated with 2% by mass of sodium dodecylsulfate (SDS, by a closed patch and washed with water using a Finn chamber (manufactured by Epitest), and then TEWL (TSWL rough skin) is measured in the same manner as described above. Then purified water or the aqueous cellooligosaccharide solution of the present invention is applied to the same site, and TEWL at the site is measured 2 hours after application (TEWL2) by the above-described method. […]

[2] = oil retention (rapeseed oil); type: physicochemical; settings: same manner as in Example 4
Excerpt: The oil retention of the cellooligosaccharide composition of the present invention is preferably 0.9 g/g. The term “oil retention” means the amount of oil absorbed per 1 g of powder measured by placing 2 g of a cellooligosaccharide composition on a glass plate, kneading powder with a spatula while adding rapeseed oil (Nissin Canola Oil, dropwise using a pipette, and using the point at which oil soaks out of the powder surface as the end point and is expressed by Oil retention (g/g)=amount of oil absorption (g)/amount of cellooligosaccharide composition (g). A greater value is preferable because separation or soaking out of oil, semisolid or liquid can be prevented when a food, a cosmetic, a drug, or a quasi-drug is produced with a prescription containing oil or a prescription containing a semisolid or a liquid at room temperature. The oil retention is more preferably in the range of 1.0 g/g and higher, particularly preferably in the range of 1.1 g/g and higher.

SMILES: OC[C@H]1O[C@H](OC[C@H]2O[C@H](O[C@]3(CO)O[C@H](CO)[C@@H](O)[C@@H]3O)[C@H](O)[C@@H](O)[C@@H]2O)[C@H](O)[C@@H](O)[C@H]1O [compound 13, raffinose]
relative TEWL value ([1]; measured in the same manner as in Examples 19 to 23, 5% by mass): 42.1%

SMILES: OC[C@H]1O[C@H](OC[C@H]2O[C@H](O[C@]3(CO)O[C@H](CO)[C@@H](O)[C@@H]3O)[C@H](O)[C@@H](O)[C@@H]2O)[C@H](O)[C@@H](O)[C@H]1O [compound 9, raffinose]
relative TEWL value after 2 hours ([1]; SDS-treated forearm skin of 3 male and 2 female subjects, rough skin taken as 100, 2 hours after application): 42.1% | TEWL RECOVERY-PROMOTING RATE AFTER 2 HOURS ([1]; relative to purified water, 2 hours after application): −7.1%

oil retention [2]: 0.85
SMILES: OC[C@H]1O[C@@H](O[C@H]2[C@H](O)[C@@H](O)[C@H](O)O[C@@H]2CO)[C@H](O)[C@@H](O)[C@@H]1O [D-cellobiose]
